The values that follow come from the SangsterLogP compilation.

Broadly, the logP is the decadic logarithm of the partition coefficient of the neutral form, usually between octanol and water. Read a low logP as lower lipophilicity. In the case of `CC(C)C=O`, the lipophilicity (logP) was found to be 0.4.
`CCOCCOC(C)=O` came in with a logP of 0.24.
The molecule `O=C1OC(=O)c2ccccc21` had a logP of 0.7.
In the case of `CCCCOCCOCCOC(C)=O` it was 1.77; in that of `CCCCCCCCCCO`, 4.2.
In the case of `CCCCOC(=O)c1ccccc1C(=O)OCc1ccccc1` it was 4.5.
In the case of `COCCOCCOCCO` it was -0.7; in that of `OCCOCCOCCO`, -1.2; in that of `OCC#CCO`, -0.73.
As to `COS(=O)(=O)OC`, the lipophilicity (logP) amounted to 0.03.
With `C=CC(=O)OCC`, the logP was determined as 1.2.
In the case of `CC(C)CC=O` it was 1.3.
In the case of `COCCOCCO` it was -1.1; in that of `C1=CC2C3C=CC(C3)C2C1` (stereo not drawn), 2.9.
In the case of `O=P(OCCCl)(OCCCl)OCCCl` it was 0.5; in that of `C/C=C/C=O`, 0.6; in that of `CCCCC(CC)COC(=O)CCCCC(=O)OCC(CC)CCCC` (stereo not drawn), 8.1.
For the molecule `CC[C@H](C)N`, the logP amounted to 0.6.
In the case of `CC(C)C(=O)O` it was 0.88.
In the case of `CC(=O)OCCl` it was 0.75; in that of `CCCCCOC(C)=O`, 2; in that of `C=CCCl`, 3.
In the case of `NCCNCCN` it was -1.3.
In the case of `C=CC(=O)O`, the logP amounted to 0.31.
Take `OCCOCCO`: the logP was -1.98.
In the case of `OCCS` it was -0.06; in that of `Cc1ccc(S(=O)(=O)O)cc1`, 0.09.
In the case of `C=C(C)CCl` it was 1.98.
